In US20200188511A1, “METHODS OF IMPROVING EFFICACY OF ALLERGY VACCINES” (ANERGIS S.A., priority 2018, published 2020):

B1: Aller T2: COP peptide of 71 amino acids, aa 48-118 of Bet v 1 (SEQ ID 4) (peptide)
chain: NGGPGTIKKISFPEGFPFKYVKDRVDEVDHTNFKYNYSVIEGGPIGDTLEKISNEIKIVATPDGGSILKIS

Tested on: Bet v 1-specific IgE
Assay: In vitro IgE binding (IgE ELISA competition and basophil degranulation assays)
Design: species or system human
Protocol: These experiments are necessary to ensure that the presentation of the peptides in the Bet v1 COP-Virosomes is not associated with the appearance of unexpected binding to pre-existing Bet v 1-specific IgE.
Bet v 1 at 2 μg/ml was coated overnight on 96-well Nunc Maxisorp® immunoplates (Thermo Fisher Scientific Inc., Wohlen, Switzerland). Sera from birch allergic persons were diluted either ten-fold or twenty-fold (depending on Bet v 1 specific IgE content) and added to serial dilutions of either Bet v 1 or COPs virosomes and incubated for 15 minutes on ice. Serial dilutions of Bet v 1 and COPs virosomes ranged from 10^−6 M to 10^−12 M, final concentration. Serum antigen mixtures were then added to the ELISA plates.

Row | IgE binding | Molecule
1 | absence of detectable IgE binding | Aller T1: COP peptide of 49 amino acids, aa 2-50 of Bet v 1 (SEQ ID 4) (GVFNYETETTSVIPAARLFKAFILDGDNLFPKVAPQAISSVENIEGNGG)
2 | absence of detectable IgE binding | Aller T3: COP peptide of 55 amino acids, aa 106-160 of Bet v 1 (SEQ ID 4) (VATPDGGSILKISNKYHTKGDHEVKAEQVKASKEMGETLLRAVESYLLAHSDAYN)
3 | absence of detectable IgE binding | B1
